In patent US20070087977A1, “METHODS AND COMPOSITIONS FOR TREATING PAIN” (priority 2004, published 2007):
Where two headings read alike, the source gives them in different places.

Key:
[1] = system: mdr1a (P-gP) knockout mouse; conditions: same doses, cited from earlier work
[2] = system: adult subjects with chronic pain; assay: Human study of the effects of oral quercetin (Q) and analgesics on sedation, concentration and pain; format: in vivo
Protocol: An empiric trial on the effects of oral quercetin (Q) on sedation, concentration, and pain was conducted. Inclusion criteria included ongoing pain of at least 4/10 on the Likert scale, poor tolerance of current analgesic regimen (complaints of sedation, dizziness, inability to focus), and willingness to complete daily diaries.
Approximately 16 adult subjects with chronic pain were screened and 9 subjects were admitted to the trial. Their pain disorders included peripheral neuropathy (2), facial pain (2), cervical radiculopathy (2), lumbar spine disease (3). Their pre-existing medications included short acting opioids (Vicodin TID, Tramadol 50 mg Q4-6), high dose, long acting opioids (OxyContin 240 mg, Methadone 400 mg), Gabapentin (900 mg and 2700 mg), Ativan, Flexeril, and Soma 350 mg. Seven of the subjects were using at least two analgesic medications. Two subjects were using no current medications because of prior histories of sedation and dizziness during opioid trials.
Q (Sigma) 500 mg per gel capsule was compounded and supplied to all subjects by overnight mail. Subjects were instructed to complete daily diaries for 7 days and continue their baseline medications and regular activities. On approximately the 7th day, they were asked to begin twice daily dosing of 2 Q (1000 mg) capsules (total daily dose of Q, 2000 mg). Diaries were completed for 7 days. Individual diaries included rating sleep interference, focus, pain now, and worst pain over the prior 24 hours. Subjects were instructed that concomitant pain medications should not be altered without speaking with the investigator. Subjects were advised that they would be contacted by telephone every day or every other day to assess progress in the trial and any side effects associated with the addition of Q. At the end of the trial, patients were interviewed. They were asked to rate their satisfaction with the study medication (−2-+2) and its ability to modulate the CNS effects of their pain medications.

[3] = system: Healthy subjects undergoing third molar removal; assay: Quercetin ameliorates CNS effects of oxycodone in an acute pain model (third molar removal); format: in vivo, human
Protocol: Opioids frequently produce adverse CNS side effects in ambulatory settings, providing a rationale for improving opioid analgesia by minimizing adverse effects. […] Healthy subjects (N=65) undergoing third molar removal are randomly allocated to receive 500 mg oral quercetin or matching placebo at 1 hr prior to surgery. […] Total Nausea and Vomiting Score (TNVS) is calculated for the time from dosing through 24 hr.

Row | SMILES | sensitivity to fetal cleft palate ([1]; heterozygous (+/-) mice) | sensitivity to fetal cleft palate ([1]; homozygous (+/+) mice) | sleep rating (1 perfect sleep, 10 worst) ([2]; after taking Q, all patients, FIG. 5) | concentration rating (1 perfect concentration, 10 worst) ([2]; after taking Q, all patients, FIG. 6) | worst pain in the last 24 hrs (NPRS, 1 no pain, 10 worst) ([2]; after taking Q, all patients, FIG. 7) | pain at the time the patients were called (pain now) ([2]; after taking Q, all patients, FIG. 8) | global assessment (scale of -2 to 2) ([2]; all patients on opiate or MSD and modulator (Q), FIG. 15) | CNS activation noted ([2]; opioid users taking Q) | central withdrawal noted (number of opioid users) ([2]; opioid users taking Q) | number of patients reporting 2 in global assessment ([2]; scale of -2 to 2, FIG. 15) | number of patients reporting -2 in global assessment ([2]; scale of -2 to 2, FIG. 15) | pain on the scale from 1-10 (worst pain in last 24 hrs, pain at time of call) ([2]; two patients not on baseline meds, poor tolerance of systemic medications, FIGS. 13 and 14) | median time to request for a second analgesic ([3]; 500 mg oral quercetin + 10 mg oral oxycodone) [min] | mean pain intensity ([3]; 500 mg oral quercetin + 10 mg oral oxycodone, compared with placebo group) | oxycodone plasma concentrations, quercetin vs placebo group ([3]; prior to surgery, at 1 hr, at 4 hr)
1 | CC[C@H](C)[C@H]1O[C@]2(C=C[C@@H]1C)C[C@@H]1C[C@@H](C/C=C(\C)[C@@H](O[C@H]3C[C@H](OC)[C@@H](O[C@H]4C[C@H](OC)[C@@H](O)[C@H](C)O4)[C@H](C)O3)[C@@H](C)/C=C/C=C3\CO[C@@H]4[C@H](O)C(C)=C[C@@H](C(=O)O1)[C@]34O)O2 [avermectin] | less sensitive | insensitive | – | – | – | – | – | – | – | – | – | – | – | – | –
2 | O=c1c(O)c(-c2ccc(O)c(O)c2)oc2cc(O)cc(O)c12 [quercetin] | – | – | overall improvement | overall improvement | overall improvement | overall improvement | overall improvement in their condition | all the 4 opioid users | 3 | three | none | brought the pain down | 120 | consistently lower | do not differ
